Activity calls are given as the source filed them. No cut-off for these calls is given here.
What was measured:
NCI-H522 [1] = assay: Growth inhibition against human NCI-H522 cells assessed as lethal concentration incubated for 48 hrs by sulforhodamine B spectrophotometric assay; type: functional; conditions: read-out: LC50 (the source's name)
KM12 = assay: Growth inhibition against human KM12 cells assessed as total growth inhibitory concentration incubated for 48 hrs by sulforhodamine B spectrophotometric assay; type: functional
[2] = Cytotoxicity against mouse NIH3T3 cells assessed as cell growth inhibition incubated for 72 hrs by MTT assay; type: toxicity, cell-based
SK-MEL-2 = assay: Growth inhibition against human SK-MEL-2 cells assessed as lethal concentration incubated for 48 hrs by sulforhodamine B spectrophotometric assay; type: functional; conditions: read-out: LC50 (the source's name)
T47D [3] = assay: Growth inhibition of human T47D cells incubated for 48 hrs by sulforhodamine B spectrophotometric assay; type: functional
NCI-H226 = assay: Growth inhibition against human NCI-H226 cells assessed as total growth inhibitory concentration incubated for 48 hrs by sulforhodamine B spectrophotometric assay; type: functional
HOP-92 [4] = assay: Growth inhibition against human HOP-92 cells assessed as total growth inhibitory concentration incubated for 48 hrs by sulforhodamine B spectrophotometric assay; type: functional
CAKI-1 [5] = assay: Growth inhibition against human CAKI-1 cells assessed as total growth inhibitory concentration incubated for 48 hrs by sulforhodamine B spectrophotometric assay; type: functional
OVCAR-4 = assay: Growth inhibition against human OVCAR-4 cells assessed as total growth inhibitory concentration incubated for 48 hrs by sulforhodamine B spectrophotometric assay; type: functional
TK-10 [6] = assay: Growth inhibition against human TK-10 cells assessed as lethal concentration incubated for 48 hrs by sulforhodamine B spectrophotometric assay; type: functional; conditions: read-out: LC50 (the source's name)
SR = assay: Growth inhibition against human SR cells assessed as total growth inhibitory concentration incubated for 48 hrs by sulforhodamine B spectrophotometric assay; type: functional
CAKI-1 [7] = assay: Growth inhibition against human CAKI-1 cells assessed as lethal concentration incubated for 48 hrs by sulforhodamine B spectrophotometric assay; type: functional; conditions: read-out: LC50 (the source's name)
TK-10 [8] = assay: Growth inhibition of human TK-10 cells incubated for 48 hrs by sulforhodamine B spectrophotometric assay; type: functional
SN12C = assay: Growth inhibition against human SN12C cells assessed as total growth inhibitory concentration incubated for 48 hrs by sulforhodamine B spectrophotometric assay; type: functional
Hs-578T = assay: Growth inhibition against human Hs-578T cells assessed as lethal concentration incubated for 48 hrs by sulforhodamine B spectrophotometric assay; type: functional; conditions: read-out: LC50 (the source's name)
ACHN = assay: Growth inhibition of human ACHN cells incubated for 48 hrs by sulforhodamine B spectrophotometric assay; type: functional
SNB-75 = assay: Growth inhibition against human SNB-75 cells assessed as lethal concentration incubated for 48 hrs by sulforhodamine B spectrophotometric assay; type: functional; conditions: read-out: LC50 (the source's name)
MDA-MB-231 = assay: Induction of apoptosis in human MDA-MB-231 cells at 5 uM incubated for 24 hrs by Annexin-V-FITC/propidium iodide staining based flow cytometry analysis (reference value: 8.9%); type: functional
T47D [9] = assay: Growth inhibition against human T47D cells assessed as lethal concentration incubated for 48 hrs by sulforhodamine B spectrophotometric assay; type: functional; conditions: read-out: LC50 (the source's name)
OVCAR-8 = assay: Growth inhibition against human OVCAR-8 cells assessed as total growth inhibitory concentration incubated for 48 hrs by sulforhodamine B spectrophotometric assay; type: functional
CCRF-CEM [10] = assay: Induction of cell cycle arrest in human CCRF-CEM cells assessed as accumulation of cells at sub-G1 phase at 4.14 uM incubated for 24 hrs by propidium iodide staining based flow cytometry analysis (reference value: 2.36 +/- 0.049%); type: functional
MDA-MB-435 = assay: Growth inhibition against human MDA-MB-435 cells assessed as lethal concentration incubated for 48 hrs by sulforhodamine B spectrophotometric assay; type: functional; conditions: read-out: LC50 (the source's name)
U-251 = assay: Growth inhibition against human U-251 cells assessed as lethal concentration incubated for 48 hrs by sulforhodamine B spectrophotometric assay; type: functional; conditions: read-out: LC50 (the source's name)
SF-295 = assay: Growth inhibition against human SF-295 cells assessed as lethal concentration incubated for 48 hrs by sulforhodamine B spectrophotometric assay; type: functional; conditions: read-out: LC50 (the source's name)
786-0 = assay: Growth inhibition of human 786-0 cells incubated for 48 hrs by sulforhodamine B spectrophotometric assay; type: functional
CCRF-CEM [11] = assay: Induction of cell cycle arrest in human CCRF-CEM cells assessed as DNA synthesis at 4.14 uM incubated for 2.5 hrs by BrdU incorporation based flow cytometry analysis (reference value: 42.4 +/- 0.66%); type: functional
HOP-92 [12] = assay: Growth inhibition against human HOP-92 cells assessed as lethal concentration incubated for 48 hrs by sulforhodamine B spectrophotometric assay; type: functional; conditions: read-out: LC50 (the source's name)
NCI-H322M = assay: Anticancer activity against human NCI-H322M cells assessed as cell growth at 10 uM incubated for 48 hrs by sulforhodamine B assay; type: functional; conditions: read-out: Activity
NCI-H522 [13] = assay: Growth inhibition against human NCI-H522 cells assessed as total growth inhibitory concentration incubated for 48 hrs by sulforhodamine B spectrophotometric assay; type: functional
A549 [14] = assay: Growth inhibition of human A549 cells incubated for 48 hrs by sulforhodamine B spectrophotometric assay; type: functional
SF-268 = assay: Growth inhibition against human SF-268 cells assessed as total growth inhibitory concentration incubated for 48 hrs by sulforhodamine B spectrophotometric assay; type: functional
UO-31 = assay: Growth inhibition of human UO-31 cells incubated for 48 hrs by sulforhodamine B spectrophotometric assay; type: functional
SK-MEL-5 = assay: Anticancer activity against human SK-MEL-5 cells assessed as cell growth at 10 uM incubated for 48 hrs by sulforhodamine B assay; type: functional; conditions: read-out: Activity
[15] = Acute toxicity in C57BL/6 mouse assessed as decrease in body mass at 20 mg/kg,ip administration observed after 22 days; type: organism-based; conditions: in vivo, 528 h, time 22 day
CCRF-CEM [16] = assay: Induction of cell cycle arrest in human CCRF-CEM cells assessed as accumulation of cells at S phase at 20.7 uM incubated for 24 hrs by propidium iodide staining based flow cytometry analysis (reference value: 41.09 +/- 0.5%); type: functional
[17] = Cytotoxicity against human HaCaT cells assessed as cell growth inhibition incubated for 72 hrs by MTT assay; type: toxicity, cell-based; conditions: HaCaT cells
SW-620 = assay: Growth inhibition of human SW620 cells incubated for 48 hrs by sulforhodamine B spectrophotometric assay; type: functional
[18] = Acute toxicity in C57BL/6 mouse assessed as change in red blood cells at 20 mg/kg,ip administration observed after 22 days; type: organism-based; conditions: in vivo, 528 h, time 22 day
A549 [19] = assay: Growth inhibition against human A549 cells assessed as lethal concentration incubated for 48 hrs by sulforhodamine B spectrophotometric assay; type: functional; conditions: read-out: LC50 (the source's name)
CCRF-CEM [20] = assay: Induction of cell cycle arrest in human CCRF-CEM cells assessed as accumulation of cells at M phase at 20.7 uM incubated for 24 hrs by propidium iodide staining based flow cytometry analysis (reference value: 1.97 +/- 0.042%); type: functional
KB 3-1 = assay: Induction of cell morphological changes in human KB 3-1 cells at 1 uM incubated for 24 hrs by Hoechst-33342 staining based fluorescent microscopy analysis; type: functional
SK-MEL-28 = assay: Growth inhibition against human SK-MEL-28 cells assessed as lethal concentration incubated for 48 hrs by sulforhodamine B spectrophotometric assay; type: functional; conditions: read-out: LC50 (the source's name)
OVCAR-5 = assay: Growth inhibition of human OVCAR-5 cells incubated for 48 hrs by sulforhodamine B spectrophotometric assay; type: functional

## O=C1C2=C(C(=O)c3c(O)cccc31)C(c1ccco1)c1sc(=O)[nH]c1S2 (stereo not drawn)
NCI-H522 [1]
  CC50: 26.4 µM
KM12
  TGI: 31.3 µM
[2]
  IC50 at 72 h: 6.07 µM
SK-MEL-2
  CC50: 52.9 µM
T47D [3]
  GI50: 2.87 µM
NCI-H226
  TGI: 5.46 µM
HOP-92 [4]
  TGI: 8.08 µM
CAKI-1 [5]
  TGI: 13.9 µM
OVCAR-4
  TGI: 3.95 µM
TK-10 [6]
  CC50: 56.4 µM
SR
  TGI: 69.5 µM
CAKI-1 [7]
  CC50: 37.3 µM
TK-10 [8]
  GI50: 12.3 µM
SN12C
  TGI: 3.49 µM
Hs-578T
  CC50: > 100 µM
ACHN
  GI50: 4.08 µM
SNB-75
  CC50: 25.8 µM
MDA-MB-231
  Activity: 11.7%
T47D [9]
  CC50: > 100 µM
OVCAR-8
  TGI: 8.97 µM
CCRF-CEM [10]
  Activity: 5.02%
MDA-MB-435
  CC50: 5.26 µM
U-251
  CC50: 35.7 µM
SF-295
  CC50: 6.5 µM
786-0
  GI50: 7.09 µM
CCRF-CEM [11]
  Activity: 19.29%
HOP-92 [12]
  CC50: 32.5 µM
NCI-H322M
  growth at 10 µM: -97.7%
NCI-H522 [13]
  TGI: 6.99 µM
A549 [14]
  GI50: 1.78 µM
SF-268
  TGI: 19.2 µM
UO-31
  GI50: 2.56 µM
SK-MEL-5
  growth at 10 µM: -93.4%
[15]
  Activity: Toxic
CCRF-CEM [16]
  Activity: 42.33%
[17]
  IC50 at 72 h: 37.2 µM
SW-620
  GI50: 3.28 µM
[18]
  Activity: Non-Toxic
A549 [19]
  CC50: 7.38 µM
CCRF-CEM [20]
  Activity: 1.7%
KB 3-1
  Activity: Active
SK-MEL-28
  CC50: 7.42 µM
OVCAR-5
  GI50: 2.13 µM
